In US8492560B2, “Quinazoline derivatives as angiogenesis inhibitors” (AstraZeneca AB, priority 1999, dated 2013) one finds melting point data, which are given here for four compounds.

`COc1cc2c(Oc3ccc4[nH]cc(C)c4c3)ncnc2cc1OCCCN1CCCC1` [Example 179, 6-methoxy-4-(3-methylindol-5-yloxy)-7-(3-(pyrrolidin-1-yl)propoxy)quinazoline] had a melting point of 75 to 77 °C.

For `COc1cc2c(Oc3cccc4[nH]ccc34)ncnc2cc1OCCCN1CCCCC1` [Example 169, 4-(indol-4-yloxy)-6-methoxy-7-(3-piperidinopropoxy)quinazoline], the melting point was in the range of 80 to 82 °C.

As for `COc1cc2c(Oc3cnc4[nH]ccc4c3)ncnc2cc1OCCCN1CCCC1` [Example 182, 6-methoxy-7-(3-(pyrrolidin-1-yl)propoxy)-4-(1H-pyrrolo[2,3-b]pyridin-5-yloxy)quinazoline], the melting point fell in the range of 184 to 185.5 °C.

For the compound `COc1cc2c(Oc3ccc4[nH]c(C)cc4c3)ncnc2cc1OCC1CCN(C)C(=O)C1` (stereo not shown) [Example 268, 6-methoxy-4-(2-methylindol-5-yloxy)-7-(1-methyl-2-oxopiperidin-4-ylmethoxy)quinazoline], the melting point is 250 to 251 °C.

A word on the melting point: it is the temperature of the solid-liquid transition.
